The values below come from patent US11072634B2, “Inhibitors of transglutaminases” (Zedira GmbH, priority 2016, dated 2021).

Structures are written as SMILES.

Assay [1] concerns the target T1, TG2 (Rattus norvegicus, UniProt Q9WVJ6).
T1 construct: endogenous in cells; host or cells: NRK52E
T1 sequence (Q9WVJ6 1-686): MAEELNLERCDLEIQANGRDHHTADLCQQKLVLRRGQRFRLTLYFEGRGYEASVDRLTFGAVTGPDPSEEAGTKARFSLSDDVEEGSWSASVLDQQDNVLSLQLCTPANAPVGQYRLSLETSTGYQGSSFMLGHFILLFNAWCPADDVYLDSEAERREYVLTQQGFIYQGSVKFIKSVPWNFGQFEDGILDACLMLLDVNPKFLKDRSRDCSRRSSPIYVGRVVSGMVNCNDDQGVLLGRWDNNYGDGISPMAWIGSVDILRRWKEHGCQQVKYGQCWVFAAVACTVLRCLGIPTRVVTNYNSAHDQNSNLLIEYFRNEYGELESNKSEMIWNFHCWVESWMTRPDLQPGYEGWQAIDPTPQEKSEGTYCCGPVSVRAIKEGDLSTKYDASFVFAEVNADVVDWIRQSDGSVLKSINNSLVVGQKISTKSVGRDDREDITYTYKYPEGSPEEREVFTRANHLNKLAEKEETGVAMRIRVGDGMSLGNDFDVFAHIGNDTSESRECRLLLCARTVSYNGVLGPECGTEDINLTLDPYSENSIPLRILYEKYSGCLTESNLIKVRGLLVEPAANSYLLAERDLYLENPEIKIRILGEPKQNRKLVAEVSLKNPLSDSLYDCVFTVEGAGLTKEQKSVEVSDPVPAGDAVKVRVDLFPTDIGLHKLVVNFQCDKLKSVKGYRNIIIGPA
Nature of the assay: TG2 activity in NRK52E cell homogenates (Tissue Transglutaminase Pico-Assay Kit). Format: cell-based. The settings on record: 6/24/36 mM glucose, 10-100 μM inhibitor. The protocol:
Fibrosis is a hallmark in diabetic nephropathy and chronic kidney diseases. Proximal tubular epithelial cells show increased TG2 activity and increased extracellular matrix proteins (ECM) accumulation under hyperglycemic conditions. ECM accumulation is a hall mark of fibrosis. […] TG2-activity and ECM-accumulation was measured. Rattus norvegicus kidney derived cell line NRK52E was grown at 37° C. in a humidified atmosphere at 5% (v/v) CO2 in DMEM (Dulbecco's modified Eagle's medium) containing 100 μg/mL streptomycin, 100 units/ml penicillin, […], and 10% (v/v) fetal calf serum. For simulation of normal physiological conditions 6 mM D-glucose were added to the medium, while addition of 24 mM and 36 mM D-glucose simulated hyperglycemic conditions. Reversible TG2 inhibitor E06 in the concentrations indicated in FIG. 1A was added at the time of plating to the medium. Reversible TG2 inhibitor E22 in the concentrations indicated in FIG. 2A was added at the time of plating to the medium.
TG2-activity was determined in cell homogenates. […]
TG2-activity was measured using the TG2-selective Tissue Transglutaminase Pico-Assay Kit (#M003, Zedira, Darmstadt, Germany) according to the manufacturer's instructions. […]

Assay [2] addresses T2, TG2 (Homo sapiens, UniProt P21980).
T2 sequence (P21980 1-687): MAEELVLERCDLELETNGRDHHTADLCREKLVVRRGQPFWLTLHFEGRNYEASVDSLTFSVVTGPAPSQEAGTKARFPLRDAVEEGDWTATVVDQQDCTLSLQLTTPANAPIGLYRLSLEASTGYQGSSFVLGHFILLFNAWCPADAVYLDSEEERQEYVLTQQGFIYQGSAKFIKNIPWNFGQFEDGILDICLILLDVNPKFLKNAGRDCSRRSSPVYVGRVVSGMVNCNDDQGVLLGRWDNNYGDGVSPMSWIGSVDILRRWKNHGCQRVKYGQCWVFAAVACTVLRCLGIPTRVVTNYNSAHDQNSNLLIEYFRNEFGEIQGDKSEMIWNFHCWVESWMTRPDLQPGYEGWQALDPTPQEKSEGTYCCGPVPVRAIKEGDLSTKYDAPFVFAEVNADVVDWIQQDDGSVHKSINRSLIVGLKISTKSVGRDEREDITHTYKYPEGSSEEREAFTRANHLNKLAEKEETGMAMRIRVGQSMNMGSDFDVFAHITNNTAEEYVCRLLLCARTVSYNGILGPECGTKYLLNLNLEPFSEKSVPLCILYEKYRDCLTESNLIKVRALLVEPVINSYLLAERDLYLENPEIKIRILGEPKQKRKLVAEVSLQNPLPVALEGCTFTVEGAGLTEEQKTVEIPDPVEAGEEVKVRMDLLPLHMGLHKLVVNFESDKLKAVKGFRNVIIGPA
Kind of assay: Transglutaminase activity of homogenates of LX-2 cells. Format: cell-based. The note with it: LX-2, 100 μM, 12 days; read-out: Transglutaminase activity, of the inhibitor free control. Here is the method:
A) Transglutaminase activity of homogenates from LX-2-cells grown in standard plastic 6-well plates in the presence of 0-200 μM E22 determined by TG2-selective Tissue Transglutaminase Pico-Assay Kit (#M003, Zedira, Darmstadt, Germany) according to the manufacturer's instructions.
Human hepatic stellate cell line LX-2 was cultured on standard plastic 6 well plates in Dulbecco's Modified Eagle's Medium containing 100 μg/mL streptomycin, 100 units/ml penicillin, 2 mM glutamine, and 10% (v/v) fetal calf serum. E22 was added to a concentration of 0 μM, 100 μM and 200 μM. Cells were grown at 37° C. and 5% CO2 humidified atmosphere. Medium was exchanged every two days.

Consider `CC(=O)N[C@@H](CCC(=O)C(N)=O)C(=O)N1CCN(c2ccccc2Cl)CC1` [Compound E06, (S)-5-acetamido-6-(4-(2-chlorophenyl)piperazin-1-yl)-2,6-dioxohexanamide], for which the “TG2 activity determined in the cell homogenates” value on TG2 [1] is recorded as “decreases”. As for `CCCCCNC(=O)C(=O)CC[C@H](NC(=O)[C@@H]1CCCN1C(C)=O)C(=O)Nc1cccn(CC(=O)NCC(CC)CC)c1=O` [Compound E22, (S)-2-((S)-1-acetylpyrrolidine-2-carboxamido)-N1-(1-(2-(2-ethylbutylamino)-2-oxoethyl)-2-oxo-1,2-dihydropyridin-3-yl)-5-oxo-N6-pentylhexanediamide], the remaining activity at 100 µM at TG2 [2] is less than 5%. For the same molecule, the “TG2 activity determined in the cell homogenates” value on TG2 [1] is given as “decreases”.
